Reference: patent US8883782B2, “Spiro-tetracyclic ring compounds as beta-secretase modulators and methods of use” (Amgen Inc., priority 2010, dated 2014)

Legend:
[1] = target: Beta Secretase enzyme (BACE) (Homo sapiens, UniProt P56817); assay: In vitro enzymatic BACE FRET (fluorescence resonance energy transfer) assay; assay type: biochemical; settings: average IC50, enzyme assay; read-out: BACE 1 FRET assay
Outline: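 Acetate buffer (0.05 M, pH 4.2), 10% DMSO final, 100 uM nonionic detergent genapol. Substrate addition (50 nM FRET peptide) initiates; one-hour incubation; Tris raises pH to neutrality before fluorescence measurement.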

[2] = system: Aβ40 in conditioned medium of cells stably expressing Amyloid Precursor Protein (APP); assay: In vitro BACE cell-based assay (Aβ40 in conditioned medium, sandwich ELISA); settings: Homo sapiens, HEK293, average IC50; read-out: HEK cell assay
Outline: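 Quantification relied on pAb40/6E10 sandwich ELISA with Europium fluorescence counts, and IC50 was fitted versus concentration.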

Beta Secretase enzyme (BACE), sequence (P56817 46-501, species assumed): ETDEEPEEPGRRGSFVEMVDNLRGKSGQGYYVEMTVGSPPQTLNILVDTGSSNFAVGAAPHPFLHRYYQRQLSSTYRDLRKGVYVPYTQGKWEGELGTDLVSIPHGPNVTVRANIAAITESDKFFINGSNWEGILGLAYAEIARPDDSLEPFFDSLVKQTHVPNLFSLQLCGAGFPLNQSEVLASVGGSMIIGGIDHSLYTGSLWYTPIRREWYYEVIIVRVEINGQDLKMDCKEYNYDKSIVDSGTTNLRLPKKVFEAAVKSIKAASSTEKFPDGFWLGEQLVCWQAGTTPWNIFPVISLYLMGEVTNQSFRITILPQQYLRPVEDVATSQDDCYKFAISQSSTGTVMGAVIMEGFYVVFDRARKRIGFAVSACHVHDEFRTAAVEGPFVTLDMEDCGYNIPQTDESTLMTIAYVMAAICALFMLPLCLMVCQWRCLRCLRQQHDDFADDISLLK

IC50 [1] [nM] | IC50 [2] [nM] | SMILES
18100 | ≥ 10000 | COc1cc2c(c(F)c1F)Oc1ccc(Br)cc1[C@]21COC(N)=N1 [Example 1002, (4R)-7′-bromo-3′,4′-difluoro-2′-methoxyspiro[1,3-oxazole-4,9′-xanthen]-2-amine]
1090 | ≥ 10000 | COc1cc2c(c(F)c1F)Oc1ccc(Br)cc1[C@@]21COC(N)=N1 [Example 1003, (4S)-7′-bromo-3′,4′-difluoro-2′-methoxyspiro[1,3-oxazole-4,9′-xanthen]-2-amine]
5560 | ≥ 10000 | COc1cc2c(c(F)c1F)Oc1ccc(-c3cccnc3F)cc1[C@]21COC(N)=N1 [Example 1004, (4R)-3′,4′-difluoro-7′-(2-fluoro-3-pyridinyl)-2′-methoxyspiro[1,3-oxazole-4,9′-xanthen]-2-amine]
5.8 | 1000 | COc1cc2c(c(F)c1F)Oc1ccc(-c3cccnc3F)cc1[C@@]21COC(N)=N1 [Example 1005, (4S)-3′,4′-difluoro-7′-(2-fluoro-3-pyridinyl)-2′-methoxyspiro[1,3-oxazole-4,9′-xanthen]-2-amine]
1.9 | 24 | NC1=N[C@@]2(CO1)c1cc(-c3cccnc3)ccc1Oc1c2cc(C2=CCOCC2)c(F)c1F [Example 1007, (4S)-2′-(3,6-dihydro-2H-pyran-4-yl)-3′,4′-difluoro-7′-(3-pyridinyl)spiro[1,3-oxazole-4,9′-xanthen]-2-amine]
17.9 | 775 | CC(C)(C#N)COc1cc2c(c(F)c1F)Oc1ccc(-c3cccnc3)cc1[C@]21COC(N)=N1 [Example 1008, 3-(((4R)-2-amino-3′,4′-difluoro-7′-(3-pyridinyl)spiro[1,3-oxazole-4,9′-xanthen]-2′-yl)oxy)-2,2-dimethylpropanenitrile]
1.7 | 32 | CC(C)(C#N)COc1cc2c(c(F)c1F)Oc1ccc(-c3cccnc3)cc1[C@@]21COC(N)=N1 [Example 1009, 3-(((4S)-2-amino-3′,4′-difluoro-7′-(3-pyridinyl)spiro[1,3-oxazole-4,9′-xanthen]-2′-yl)oxy)-2,2-dimethylpropanenitrile]
9.4 | 647 | NC1=N[C@]2(CO1)c1cc(-c3cccnc3F)ccc1Oc1c2cc(C2=CCOCC2)c(F)c1F [Example 1010, (4R)-2′-(3,6-dihydro-2H-pyran-4-yl)-3′,4′-difluoro-7′-(2-fluoro-3-pyridinyl)spiro[1,3-oxazole-4,9′-xanthen]-2-amine]

The remaining lines, values behind:

SMILES | IC50 [1] [nM] | IC50 [2] [nM]
NC1=N[C@@]2(CO1)c1cc(OCc3cccc(F)c3)ccc1Oc1ncc(-c3cccnc3)cc12 [Example 982, (5S)-7-((3-fluorobenzyl)oxy)-3-(3-pyridinyl)spiro[chromeno[2,3-b]pyridine-5,4′-[1,3]oxazol]-2′-amine] | 66.8 | 644
COc1cccc(COc2ccc3c(c2)[C@@]2(COC(N)=N2)c2cc(-c4cccnc4)cnc2O3)c1 [Example 983, (5S)-7-((3-methoxybenzyl)oxy)-3-(3-pyridinyl)spiro[chromeno[2,3-b]pyridine-5,4′-[1,3]oxazol]-2′-amine] | 24.6 | 314
N#Cc1cccc(COc2ccc3c(c2)[C@@]2(COC(N)=N2)c2cc(-c4cccnc4)cnc2O3)c1 [Example 984, 3-((((5S)-2′-amino-3-(3-pyridinyl)spiro[chromeno[2,3-b]pyridine-5,4′-[1,3]oxazol]-7-yl)oxy)methyl)benzonitrile] | 30.8 | 125
NC1=N[C@@]2(CO1)c1cc(OCc3cccc(C(F)(F)F)c3)ccc1Oc1ncc(-c3cccnc3)cc12 [Example 985, (5S)-3-(3-pyridinyl)-7-((3-(trifluoromethyl)benzyl)oxy)spiro[chromeno[2,3-b]pyridine-5,4′-[1,3]oxazol]-2′-amine] | 68.3 | 288
CC1(C#Cc2cc3c(cc2OC(F)(F)F)Oc2ccc(-c4cccnc4F)cc2[C@@]32COC(N)=N2)COC1 [Example 986, (4S)-7′-(2-fluoro-3-pyridinyl)-2′-((3-methyl-3-oxetanyl)ethynyl)-3′-(trifluoromethoxy)spiro[1,3-oxazole-4,9′-xanthen]-2-amine] | 193 | 2820
CC1(C#Cc2cc3c(cc2OC(F)(F)F)Oc2ccc(-c4cccnc4F)cc2[C@]32COC(N)=N2)COC1 [Example 987, (4R)-7′-(2-fluoro-3-pyridinyl)-2′-((3-methyl-3-oxetanyl)ethynyl)-3′-(trifluoromethoxy)spiro[1,3-oxazole-4,9′-xanthen]-2-amine] | 4630 | ≥ 10000
NC1=N[C@]2(CO1)c1cc(-c3cccnc3F)ccc1Oc1cc(OC(F)(F)F)c(Br)cc12 [Example 988, (4R)-2′-bromo-7′-(2-fluoro-3-pyridinyl)-3′-(trifluoromethoxy)spiro[1,3-oxazole-4,9′-xanthen]-2-amine] | 40000 | ≥ 10000
NC1=N[C@@]2(CO1)c1cc(-c3cccnc3F)ccc1Oc1cc(OC(F)(F)F)c(Br)cc12 [Example 989, (4S)-2′-bromo-7′-(2-fluoro-3-pyridinyl)-3′-(trifluoromethoxy)spiro[1,3-oxazole-4,9′-xanthen]-2-amine] | 2380 | ≥ 10000
NC1=N[C@]2(CO1)c1cc(-c3cccnc3F)ccc1Oc1cc(OC(F)(F)F)c(-c3ccnc(F)c3)cc12 [Example 990, (4R)-7′-(2-fluoro-3-pyridinyl)-2′-(2-fluoro-4-pyridinyl)-3′-(trifluoromethoxy)spiro[1,3-oxazole-4,9′-xanthen]-2-amine] | 8220 | 7220
NC1=N[C@@]2(CO1)c1cc(-c3cccnc3F)ccc1Oc1cc(OC(F)(F)F)c(-c3ccnc(F)c3)cc12 [Example 991, (4S)-7′-(2-fluoro-3-pyridinyl)-2′-(2-fluoro-4-pyridinyl)-3′-(trifluoromethoxy)spiro[1,3-oxazole-4,9′-xanthen]-2-amine] | 193 | 1090
NC1=N[C@]2(CS1)c1cc(-c3cccnc3F)ccc1Oc1cnc(-c3ccnc(F)c3)cc12 [Example 992, (5R)-7-(2-fluoro-3-pyridinyl)-3-(2-fluoro-4-pyridinyl)spiro[chromeno[2,3-c]pyridine-5,4′-[1,3]thiazol]-2′-amine] | 42.5 | 1830
NC1=N[C@]2(CS1)c1cc(Br)ccc1Oc1cnc(Cl)cc12 [Example 993, (5R)-7-bromo-3-chlorospiro[chromeno[2,3-c]pyridine-5,4′-[1,3]thiazol]-2′-amine] | 11600 | ≥ 10000
CC1(C#Cc2cc3c(cn2)Oc2ccc(-c4cccnc4F)cc2[C@@]32CSC(N)=N2)COC1 [Example 995, (5S)-7-(2-fluoro-3-pyridinyl)-3-((3-methyl-3-oxetanyl)ethynyl)spiro[chromeno[2,3-c]pyridine-5,4′-[1,3]thiazol]-2′-amine] | 0.8 | 15
NC1=N[C@]2(CS1)c1cc(-c3cccnc3F)ccc1Oc1c2cc(C2=CCOCC2)nc1F [Example 998, (5R)-3-(3,6-dihydro-2H-pyran-4-yl)-1-fluoro-7-(2-fluoro-3-pyridinyl)spiro[chromeno[2,3-c]pyridine-5,4′-[1,3]thiazol]-2′-amine] | 13.5 | 218
